{
  "source": "patent US5208243A",
  "about": "“5-isoquinolinesulfonamides” (Adir et Compagnie, priority 1991, dated 1993)",
  "key": {"rabbit aorta [1]": {"tested_on": "rabbit aorta", "assay": "Contraction of rabbit aorta induced by noradrenaline in a normal physiological medium", "set-up": "species or system New Zealand rabbit", "settings": "Oryctolagus cuniculus, noradrenaline 10^-6 M, read-out: IC50, noradrenaline stimulus", "description": "(§1) Studies are carried out on rings, 3 mm in length, […] The vascular rings are immersed in a normal physiological solution or in a physiological solution lacking calcium (+0.2 mM of the chelating agent EGTA), which is thermostatically regulated at 37° C. and aerated with a 95% O2 +5% CO2 mixture. The rings are linked to a STATHAM tension sensor (UC2-GOULD). The optimal tension for each vessel is applied and a stabilization period of 90 min is observed for the preparations. a) Antivasoconstrictive activity of the compounds of the invention in a physiological medium."}, "rabbit mesenteric artery": {"tested_on": "rabbit mesenteric artery", "assay": "Contraction of rabbit mesenteric artery induced by electrical stimulation", "set-up": "species or system New Zealand rabbit", "settings": "Oryctolagus cuniculus, normal physiological medium", "description": "as §1"}, "rabbit aorta [2]": {"tested_on": "rabbit aorta", "assay": "Contraction of rabbit aorta induced by phorbol ester in a normal physiological medium", "set-up": "species or system New Zealand rabbit", "settings": "Oryctolagus cuniculus, TPA 10^-5 M, read-out: IC50, phorbol ester stimulus", "description": "as §1"}, "rabbit aorta [3]": {"tested_on": "rabbit aorta", "assay": "Vascular contraction of rabbit aorta induced by PDGF", "set-up": "species or system New Zealand rabbit", "settings": "Oryctolagus cuniculus, 10^-5 M, preincubated 15 minutes", "description": "as §1"}, "rabbit aortas": {"tested_on": "rabbit aortas", "assay": "Contraction of rabbit aortas induced by noradrenaline in a medium without calcium", "set-up": "species or system New Zealand rabbit", "settings": "Oryctolagus cuniculus, 0.5 h, rabbit aorta, incubated 30 minutes", "description": "as §1, with “b)” for “a)”, “medium without calcium.” for “physiological medium.”"}, "rabbit aorta [4]": {"tested_on": "rabbit aorta", "assay": "Contraction of rabbit aorta induced by endothelin in a medium without calcium", "set-up": "species or system New Zealand rabbit", "settings": "Oryctolagus cuniculus, 10^-5 M, medium lacking calcium", "description": "as §1, with “b)” for “a)”, “medium without calcium.” for “physiological medium.”"}, "rabbit aorta [5]": {"tested_on": "rabbit aorta", "assay": "Contraction of rabbit aorta induced by phorbol ester in a medium without calcium", "set-up": "species or system New Zealand rabbit", "settings": "Oryctolagus cuniculus, 10^-5 M, medium lacking calcium", "description": "as §1, with “b)” for “a)”, “medium without calcium.” for “physiological medium.”"}, "Rabbit iliac artery": {"tested_on": "Rabbit iliac artery", "assay": "Contraction of rabbit iliac artery induced by caffeine in a medium without calcium", "set-up": "species or system New Zealand rabbit", "settings": "Oryctolagus cuniculus, 10^-5 M, medium lacking calcium", "description": "as §1, with “b)” for “a)”, “medium without calcium.” for “physiological medium.”"}, "guinea pig left auricle [6]": {"tested_on": "guinea pig left auricle", "assay": "Ouabain intoxication of guinea pig left auricle", "settings": "compound 10^-5 M"}, "guinea pig left auricle [7]": {"tested_on": "guinea pig left auricle", "assay": "Veratridine intoxication of guinea pig left auricle", "settings": "compound 10^-5 M", "description": "a) Effect of the compounds of the invention on the intoxication of guinea pig left auricle.\nThe left auricles are removed from guinea pigs (350-450 g) anesthetized with sodium pentobarbital (30 mg/kg). The auricles are attached to a STATHAM tension sensor (UC2-GOULD) and the initial tension applied is 0.5 grams.\nThe auricles are electrically stimulated at 1 Hz by means of platinum electrodes. The intoxications are produced either by the addition of ouabain (10^-6 M) or by the addition of veratridine (10^-5 M). The test compounds are added 15 minutes before adding the toxic agent."}, "[8]": {"tested_on": "pressor effects of phenylephrine, angiotensin II and vasopressin", "assay": "Cardiovascular reactivity to vasopressors in wakeful rats, intravenous administration", "type": "in vivo, WISTAR rat", "settings": "10 mg/kg intravenously", "description": "a) Effects of the compounds of the invention, administered intravenously, on cardiovascular reactivity to various vasopressors.\n(§2) After a 30 to 60 min period of stabilization of wakeful WISTAR rats, a range of concentrations of phenylephrine (between 0 and 16 μg/kg) is injected intravenously.\n(§3) Reading of the mean blood pressure and heart rate is carried out at the point where the pressor effect reaches its maximum. After a washing time of at least 2 hours, the test compound is administered intravenously (10 mg/kg) followed 15 minutes later by a new range of phenylephrine.\nThe same procedure is used to study the compounds of the invention for the pressor effects induced by angiotensin II (0 to 200 ng/kg) and vasopressin (0 to 200 ng/kg). These studies are carried out on different groups of animals."}, "[9]": {"tested_on": "vasopressor effect of phenylephrine", "assay": "Cardiovascular reactivity to phenylephrine in wakeful rats, oral administration", "type": "in vivo, WISTAR rat", "description": "as §2, §3\nb) Effects of the compounds of the invention, administered orally, on the cardiovascular reactivity of phenylephrine.\nThe procedure is carried out as above but the intravenous administration of the test compounds is replaced by oral administration (5, 10 and 20 mg/kg) of the test compound. The phenylephrine range is repeated 0.5, 1, 2, 3, 4, 5 and 6 hours after administration of the compound."}, "reperfusion arrhythmias": {"tested_on": "reperfusion arrhythmias", "assay": "Reperfusion arrhythmias after coronary ligature in rats", "type": "in vivo, WISTAR rat", "settings": "2 mg/kg intravenous", "description": "C/ Action of the compounds of the invention on reperfusion arrhythmias.\nA thoracotomy and a coronary ligature are carried out on WISTAR rats. After stabilization for 10 min, 2 mg/kg of the test compound are administered intravenously. The blood pressure, the heart rate and the electrocardiogram are recorded. Five minutes after injecting the product, the coronary ligature is tightened.\nAfter 5 minutes of stenosis, the ligature is removed and the electrocardiogram as well as the blood pressure are recorded for 10 consecutive minutes. The delay in the appearance of the various rhythm disorders as well as the mortality are measured."}, "[10]": {"tested_on": "smooth muscle cells of the aorta", "assay": "Proliferation rate after endothelial denudation of the aorta (3H-thymidine incorporation)", "type": "in vivo, WISTAR rat", "settings": "10 mg/kg orally, daily", "description": "D/ Effect of the compounds of the invention on the proliferation rate after endothelial denudation. […] After pretreatment for 6 days (J6), denudation of the aortic endothelium of the animals is performed according to the following method: After anesthetizing the animal with methohexital (Brietal, 60 mg/kg intraperitoneally), an embolectomy probe (Fogarty 2F) is introduced into the aorta through the left carotid. Aortic deendothelialization is achieved by three successive passages of the probe. Three days after the endothelial denudation (J9), the rats are sacrificed and the aorta is removed, incubated in a physiological solution for 1 hour at 37° C., and then transferred into a ^3 H-thymidine-enriched Krebs- Henseleit solution (specific activity: […]) for 1 hour at 37° C. This is followed by a one-hour post-incubation in a Krebs-Henseleit solution lacking ^3 H-thymidine. After washing in a Tris-EDTA buffer, the proliferation rate is calculated from the incorporation of 3H-thymidine. [drawing 17]"}},
  "data": [
    {"molecule": "CN(CC1CCN(CCCOc2ccc(F)cc2)CC1)S(=O)(=O)c1cccc2cnccc12.Cl.Cl", "note": "[Example 17, N-Methyl-N-{[1-[3-(p-fluorophenoxy)propyl]-4-piperidyl]methyl}-5-isoquinolinesulfonamide dihydrochloride]", "values": [
      {"measurement": "IC50", "setting": "rabbit aorta [1]", "result": 1500, "unit": "nM"},
      {"measurement": "IC50", "setting": "rabbit mesenteric artery", "result": 100, "unit": "nM"},
      {"measurement": "IC50", "setting": "rabbit aorta [2]", "result": 21000, "unit": "nM"},
      {"measurement": "inhibition at 10 µM", "setting": "rabbit aorta [3]", "result": 30, "unit": "%"},
      {"measurement": "inhibition at 1 µM", "setting": "rabbit aortas; compound 10^-6 M", "result": 90, "unit": "%"},
      {"measurement": "inhibition at 0.1 µM", "setting": "rabbit aortas; compound 10^-7 M", "result": 40, "unit": "%"},
      {"measurement": "inhibition at 10 µM", "setting": "rabbit aorta [4]", "result": 67, "unit": "%"},
      {"measurement": "inhibition at 10 µM", "setting": "rabbit aorta [5]", "result": 35, "unit": "%"},
      {"measurement": "inhibition at 10 µM", "setting": "Rabbit iliac artery", "result": 63, "unit": "%"},
      {"measurement": "% contraction", "setting": "guinea pig left auricle [6]; 10 min", "result": "201.5 ± 31.5", "unit": "%"},
      {"measurement": "Contracture (%)", "setting": "guinea pig left auricle [6]; 15 min", "result": 0, "unit": "%"},
      {"measurement": "% contraction", "setting": "guinea pig left auricle [6]; 30 min", "result": "186.5 ± 46", "unit": "%"},
      {"measurement": "Contracture (%)", "setting": "guinea pig left auricle [6]; 30 min", "result": "2.5 ± 2.5", "unit": "%"},
      {"measurement": "% contraction", "setting": "guinea pig left auricle [6]; 60 min", "result": "179 ± 44", "unit": "%"},
      {"measurement": "Contracture (%)", "setting": "guinea pig left auricle [6]; 60 min", "result": "5 ± 3.3", "unit": "%"},
      {"measurement": "% contraction", "setting": "guinea pig left auricle [7]; 5 min", "result": "218.8 ± 50.8", "unit": "%"},
      {"measurement": "% contraction", "setting": "guinea pig left auricle [7]; 15 min", "result": "181 ± 51", "unit": "%"},
      {"measurement": "Contracture (%)", "setting": "guinea pig left auricle [7]; 15 min", "result": 0, "unit": "%"},
      {"measurement": "Contracture (%)", "setting": "guinea pig left auricle [7]; 30 min", "result": 0, "unit": "%"},
      {"measurement": "% contraction", "setting": "guinea pig left auricle [7]; 60 min", "result": "157.1 ± 42.6", "unit": "%"},
      {"measurement": "Contracture (%)", "setting": "guinea pig left auricle [7]; 60 min", "result": 0, "unit": "%"},
      {"measurement": "reduction of the pressure effect of phenylephrine", "setting": "[8]", "result": 81, "unit": "%"},
      {"measurement": "reduction of the vasopressor effect of phenylephrine", "setting": "[9]; 20 mg/kg oral, maximum after 2 hours", "result": 60, "unit": "%"},
      {"measurement": "time of appearance of the inhibitory activity", "setting": "[9]; after oral administration", "result": 30, "unit": "min"},
      {"measurement": "time of maximum inhibitory activity", "setting": "[9]; after oral administration, 20 mg/kg", "result": 2, "unit": "h"},
      {"measurement": "duration for which the inhibitory activity remains stable", "setting": "[9]; oral", "result": 6, "unit": "h"},
      {"measurement": "delay in the appearance of ventricular extrasystoles and tachycardias", "setting": "reperfusion arrhythmias", "result": "very substantially delays the appearance of ventricular extrasystoles and tachycardias"},
      {"measurement": "prevention of the appearance of ventricular fibrillations", "setting": "reperfusion arrhythmias", "result": 100, "unit": "%"},
      {"measurement": "mortality rate", "setting": "reperfusion arrhythmias; control 4 deaths out of 9", "result": "zero"},
      {"measurement": "reduction of the proliferation of smooth muscle cells", "setting": "[10]", "result": 40, "unit": "%"}
    ]}
  ]
}
